Measurements taken from patent US20100298141A1, “SUBSTITUTED PYRIDINE N-OXIDE HERBICIDES” (E. I. DU PONT DE NEMOURS AND COMPANY, priority 2007, published 2010).

Tests used:
Test in all cases: Test F preemergence test
field bindweed = type: in vivo, Convolvulus arvensis; conditions: scale 0 to 100
Source text: (§1) Seeds of plant species selected from bermudagrass (Cynodon dactylon), Surinam grass (Brachiaria decumbens), large crabgrass (Digitaria sanguinalis), green foxtail (Setaria viridis), goosegrass (Eleusine indica), johnsongrass (Sorghum halepense), kochia (Kochia scoparia), pitted morningglory (Ipomoea lacunosa), purple nutsedge (Cyperus rotundus), common ragweed (Ambrosia elation), mustard (Brassica nigra), guineagrass (Panicum maximum), […] (Paspalum dilatatum), barnyardgrass (Echinochloa crus-galli), southern sandbur (Cenchrus echinatus), common sowthistle (Sonchus oleraceous), prickly […] spinosa), Italian ryegrass (Lolium multiflorum), common purslane (Portulaca oleracea), broadleaf signalgrass (Brachiaria platyphylla), common groundsel (Senecio vulgaris), common chickweed (Stellaria media), Virginia dayflower (Commelina virginica), annual bluegrass (Poa annua), naked crabgrass (Digitaria nuda), […] cochinchinensis), quackgrass (Elytrigia repens), Canada horseweed (Conyza canadensis), field bindweed (Convolvulus arvensis), […] (Bidens bipinnata), common mallow (Malva sylvestris), Russian thistle (Salsola kali), and sugarcane (Saccharum officinarum) were planted and treated preemergence with test chemicals formulated in a non-phytotoxic solvent mixture which included a surfactant. At a different time, sugarcane was treated with postemergence applications of some of the test chemicals formulated in the same manner. Plants were approximately 3- to 4-leaf stage for the postemergence treatments. Treated plants and controls were maintained in a greenhouse for 14 to 21 days, after which time all species were compared to controls and visually evaluated. […] A dash (-) response means no test result.

common purslane = type: in vivo, Portulaca oleracea; conditions: scale 0 to 100
Source text: as §1

guineagrass = type: in vivo, Panicum maximum; conditions: scale 0 to 100
Source text: as §1

common mallow = type: in vivo, Malva sylvestris; conditions: scale 0 to 100
Source text: as §1

green foxtail = type: in vivo, Setaria viridis; conditions: scale 0 to 100
Source text: as §1

itchgrass = type: in vivo, Rottboellia cochinchinensis; conditions: scale 0 to 100
Source text: as §1

dallisgrass = type: in vivo, Paspalum dilatatum; conditions: scale 0 to 100
Source text: as §1

quackgrass = type: in vivo, Elytrigia repens; conditions: scale 0 to 100
Source text: as §1

southern sandbur = type: in vivo, Cenchrus echinatus; conditions: scale 0 to 100
Source text: as §1

barnyardgrass = type: in vivo, Echinochloa crus-galli
Source text: as §1

common groundsel = type: in vivo, Senecio vulgaris; conditions: scale 0 to 100
Source text: as §1

mustard = type: in vivo, Brassica nigra; conditions: scale 0 to 100
Source text: as §1

prickly sida = type: in vivo, Sida spinosa; conditions: scale 0 to 100
Source text: as §1

[1] = 62 g ai/ha, Preemergence, scale 0 to 100
[2] = 125 g ai/ha, preemergence, scale 0 to 100
[3] = Preemergence, 16 g ai/ha, scale 0 to 100
[4] = Preemergence, 31 g ai/ha, scale 0 to 100

Cc1cc[n+]([O-])c([S+]([O-])Cc2c(C(F)(F)F)nn(C)c2OCC(F)(F)F)c1 (racemic) [Compound 30]
20: Plant response rating, Itchgrass (itchgrass; Preemergence, 16 g ai/ha) | Plant response rating, Barnyardgrass (barnyardgrass; [3])
50: Plant response rating, Field Bindweed (field bindweed; Preemergence, 16 g ai/ha) | Plant response rating, Field Bindweed (field bindweed; Preemergence, 31 g ai/ha) | Plant response rating, Purslane (common purslane; Preemergence, 31 g ai/ha) | Plant response rating, Dallisgrass (dallisgrass; Preemergence, 16 g ai/ha) | Plant response rating, Dallisgrass (dallisgrass; Preemergence, 31 g ai/ha) | Plant response rating, Sandbur (southern sandbur; Preemergence, 31 g ai/ha) | Plant response rating, Groundsel (common groundsel; Preemergence, 16 g ai/ha)
70: Itchgrass plant response rating (itchgrass; 62 g ai/ha, Preemergence) | Quackgrass plant response rating (quackgrass; 62 g ai/ha, Preemergence) | Plant response rating, Black Mustard (mustard; Preemergence, 16 g ai/ha)
95: Plant response rating, Mallow (common mallow; Preemergence, 31 g ai/ha) | Barnyardgrass plant response rating (barnyardgrass; [1]) | Prickly Sida plant response rating (prickly sida; 62 g ai/ha, Preemergence)
25: Plant response rating, Foxtail, Green (green foxtail; Preemergence, 31 g ai/ha) | Plant response rating, Itchgrass (itchgrass; Preemergence, 31 g ai/ha)
85: Itchgrass plant response rating (itchgrass; 125 g ai/ha, preemergence) | Dallisgrass plant response rating (dallisgrass; 62 g ai/ha, Preemergence)
100: Purslane plant response rating (common purslane; 125 g ai/ha, preemergence) | Guineagrass plant response rating (guineagrass; 62 g ai/ha, Preemergence) | Guineagrass plant response rating (guineagrass; 125 g ai/ha, preemergence) | Plant response rating, Guineagrass (guineagrass; Preemergence, 31 g ai/ha) | Mallow plant response rating (common mallow; 62 g ai/ha, Preemergence) | Mallow plant response rating (common mallow; 125 g ai/ha, preemergence) | Foxtail, Green plant response rating (green foxtail; 125 g ai/ha, preemergence) | Sandbur plant response rating (southern sandbur; 62 g ai/ha, Preemergence) | Sandbur plant response rating (southern sandbur; 125 g ai/ha, preemergence) | Barnyardgrass plant response rating (barnyardgrass; [2]) | Groundsel plant response rating (common groundsel; 125 g ai/ha, preemergence) | Black Mustard plant response rating (mustard; 62 g ai/ha, Preemergence) | Black Mustard plant response rating (mustard; 125 g ai/ha, preemergence) | Prickly Sida plant response rating (prickly sida; 125 g ai/ha, preemergence)
35: Plant response rating, Purslane (common purslane; Preemergence, 16 g ai/ha) | Plant response rating, Guineagrass (guineagrass; Preemergence, 16 g ai/ha)
40: Plant response rating, Quackgrass (quackgrass; Preemergence, 31 g ai/ha)
60: Plant response rating, Prickly Sida (prickly sida; Preemergence, 16 g ai/ha)
15: Plant response rating, Foxtail, Green (green foxtail; Preemergence, 16 g ai/ha) | Plant response rating, Quackgrass (quackgrass; Preemergence, 16 g ai/ha)
98: Dallisgrass plant response rating (dallisgrass; 125 g ai/ha, preemergence)
80: Plant response rating, Prickly Sida (prickly sida; Preemergence, 31 g ai/ha)
90: Plant response rating, Mallow (common mallow; Preemergence, 16 g ai/ha) | Groundsel plant response rating (common groundsel; 62 g ai/ha, Preemergence) | Plant response rating, Groundsel (common groundsel; Preemergence, 31 g ai/ha) | Plant response rating, Black Mustard (mustard; Preemergence, 31 g ai/ha)
75: Field Bindweed plant response rating (field bindweed; 62 g ai/ha, Preemergence) | Field Bindweed plant response rating (field bindweed; 125 g ai/ha, preemergence) | Purslane plant response rating (common purslane; 62 g ai/ha, Preemergence) | Foxtail, Green plant response rating (green foxtail; 62 g ai/ha, Preemergence) | Quackgrass plant response rating (quackgrass; 125 g ai/ha, preemergence) | Plant response rating, Barnyardgrass (barnyardgrass; [4])

Cc1cc[n+]([O-])c(S(=O)(=O)C(C)c2c(C(F)(F)F)nn(C)c2OC(F)F)c1 (stereo not drawn) [Compound 11]
80: Purslane plant response rating (common purslane; 125 g ai/ha, preemergence) | Foxtail, Green plant response rating (green foxtail; 62 g ai/ha, Preemergence) | Plant response rating, Dallisgrass (dallisgrass; Preemergence, 31 g ai/ha) | Plant response rating, Black Mustard (mustard; Preemergence, 31 g ai/ha)
90: Plant response rating, Guineagrass (guineagrass; Preemergence, 31 g ai/ha) | Foxtail, Green plant response rating (green foxtail; 125 g ai/ha, preemergence) | Dallisgrass plant response rating (dallisgrass; 62 g ai/ha, Preemergence) | Quackgrass plant response rating (quackgrass; 125 g ai/ha, preemergence)
65: Plant response rating, Dallisgrass (dallisgrass; Preemergence, 16 g ai/ha)
70: Purslane plant response rating (common purslane; 62 g ai/ha, Preemergence) | Plant response rating, Guineagrass (guineagrass; Preemergence, 16 g ai/ha) | Itchgrass plant response rating (itchgrass; 62 g ai/ha, Preemergence) | Plant response rating, Prickly Sida (prickly sida; Preemergence, 31 g ai/ha)
30: Plant response rating, Mallow (common mallow; Preemergence, 16 g ai/ha) | Plant response rating, Mallow (common mallow; Preemergence, 31 g ai/ha)
25: Plant response rating, Groundsel (common groundsel; Preemergence, 31 g ai/ha)
100: Guineagrass plant response rating (guineagrass; 62 g ai/ha, Preemergence) | Guineagrass plant response rating (guineagrass; 125 g ai/ha, preemergence) | Mallow plant response rating (common mallow; 62 g ai/ha, Preemergence) | Mallow plant response rating (common mallow; 125 g ai/ha, preemergence) | Dallisgrass plant response rating (dallisgrass; 125 g ai/ha, preemergence) | Sandbur plant response rating (southern sandbur; 62 g ai/ha, Preemergence) | Sandbur plant response rating (southern sandbur; 125 g ai/ha, preemergence) | Black Mustard plant response rating (mustard; 62 g ai/ha, Preemergence) | Black Mustard plant response rating (mustard; 125 g ai/ha, preemergence) | Prickly Sida plant response rating (prickly sida; 125 g ai/ha, preemergence)
5: Plant response rating, Foxtail, Green (green foxtail; Preemergence, 16 g ai/ha)
40: Plant response rating, Purslane (common purslane; Preemergence, 16 g ai/ha) | Plant response rating, Itchgrass (itchgrass; Preemergence, 31 g ai/ha)
60: Field Bindweed plant response rating (field bindweed; 62 g ai/ha, Preemergence) | Plant response rating, Purslane (common purslane; Preemergence, 31 g ai/ha) | Plant response rating, Quackgrass (quackgrass; Preemergence, 31 g ai/ha)
98: Barnyardgrass plant response rating (barnyardgrass; [2]) | Groundsel plant response rating (common groundsel; 125 g ai/ha, preemergence)
95: Itchgrass plant response rating (itchgrass; 125 g ai/ha, preemergence) | Plant response rating, Sandbur (southern sandbur; Preemergence, 31 g ai/ha) | Barnyardgrass plant response rating (barnyardgrass; [1]) | Plant response rating, Barnyardgrass (barnyardgrass; [4]) | Groundsel plant response rating (common groundsel; 62 g ai/ha, Preemergence) | Prickly Sida plant response rating (prickly sida; 62 g ai/ha, Preemergence)
0: Plant response rating, Field Bindweed (field bindweed; Preemergence, 16 g ai/ha) | Plant response rating, Field Bindweed (field bindweed; Preemergence, 31 g ai/ha) | Plant response rating, Itchgrass (itchgrass; Preemergence, 16 g ai/ha) | Plant response rating, Quackgrass (quackgrass; Preemergence, 16 g ai/ha) | Plant response rating, Groundsel (common groundsel; Preemergence, 16 g ai/ha) | Plant response rating, Prickly Sida (prickly sida; Preemergence, 16 g ai/ha)
75: Field Bindweed plant response rating (field bindweed; 125 g ai/ha, preemergence) | Quackgrass plant response rating (quackgrass; 62 g ai/ha, Preemergence) | Plant response rating, Barnyardgrass (barnyardgrass; [3])
35: Plant response rating, Foxtail, Green (green foxtail; Preemergence, 31 g ai/ha) | Plant response rating, Black Mustard (mustard; Preemergence, 16 g ai/ha)

Cn1nc(OC(F)F)c(CS(=O)(=O)c2cccc[n+]2[O-])c1C(F)(F)F [Compound 80]
98: Guineagrass plant response rating (guineagrass; 62 g ai/ha, Preemergence) | Plant response rating, Guineagrass (guineagrass; Preemergence, 31 g ai/ha)
65: Mallow plant response rating (common mallow; 125 g ai/ha, preemergence) | Quackgrass plant response rating (quackgrass; 62 g ai/ha, Preemergence) | Plant response rating, Quackgrass (quackgrass; Preemergence, 31 g ai/ha) | Plant response rating, Sandbur (southern sandbur; 16 g ai/ha, preemergence)
0: Plant response rating, Field Bindweed (field bindweed; 16 g ai/ha, preemergence) | Field Bindweed plant response rating (field bindweed; 62 g ai/ha, Preemergence) | Field Bindweed plant response rating (field bindweed; 125 g ai/ha, preemergence) | Plant response rating, Field Bindweed (field bindweed; Preemergence, 31 g ai/ha) | Plant response rating, Purslane (common purslane; 16 g ai/ha, preemergence) | Purslane plant response rating (common purslane; 62 g ai/ha, Preemergence) | Purslane plant response rating (common purslane; 125 g ai/ha, preemergence) | Plant response rating, Purslane (common purslane; Preemergence, 31 g ai/ha) | Plant response rating, Mallow (common mallow; 16 g ai/ha, preemergence) | Mallow plant response rating (common mallow; 62 g ai/ha, Preemergence) | Plant response rating, Mallow (common mallow; Preemergence, 31 g ai/ha) | Groundsel plant response rating (common groundsel; 62 g ai/ha, Preemergence) | Plant response rating, Groundsel (common groundsel; Preemergence, 31 g ai/ha) | Plant response rating, Black Mustard (mustard; 16 g ai/ha, preemergence) | Black Mustard plant response rating (mustard; 62 g ai/ha, Preemergence) | Plant response rating, Black Mustard (mustard; Preemergence, 31 g ai/ha) | Plant response rating, Prickly Sida (prickly sida; 16 g ai/ha, preemergence) | Prickly Sida plant response rating (prickly sida; 62 g ai/ha, Preemergence) | Plant response rating, Prickly Sida (prickly sida; Preemergence, 31 g ai/ha)
95: Foxtail, Green plant response rating (green foxtail; 125 g ai/ha, preemergence) | Dallisgrass plant response rating (dallisgrass; 62 g ai/ha, Preemergence) | Plant response rating, Sandbur (southern sandbur; Preemergence, 62 g ai/ha) | Barnyardgrass plant response rating (barnyardgrass; [1])
60: Itchgrass plant response rating (itchgrass; 62 g ai/ha, Preemergence)
10: Plant response rating, Itchgrass (itchgrass; 16 g ai/ha, preemergence) | Plant response rating, Quackgrass (quackgrass; 16 g ai/ha, preemergence)
80: Plant response rating, Dallisgrass (dallisgrass; Preemergence, 31 g ai/ha) | Plant response rating, Sandbur (southern sandbur; Preemergence, 31 g ai/ha)
50: Groundsel plant response rating (common groundsel; 125 g ai/ha, preemergence) | Black Mustard plant response rating (mustard; 125 g ai/ha, preemergence)
20: Plant response rating, Itchgrass (itchgrass; Preemergence, 31 g ai/ha) | Prickly Sida plant response rating (prickly sida; 125 g ai/ha, preemergence)
85: Plant response rating, Barnyardgrass (barnyardgrass; 16 g ai/ha, preemergence, scale 0 to 100 (0 no effect, 100 complete control))
40: Plant response rating, Dallisgrass (dallisgrass; 16 g ai/ha, preemergence)
30: Plant response rating, Foxtail, Green (green foxtail; 16 g ai/ha, preemergence)
100: Guineagrass plant response rating (guineagrass; 125 g ai/ha, preemergence) | Dallisgrass plant response rating (dallisgrass; 125 g ai/ha, preemergence) | Sandbur plant response rating (southern sandbur; 125 g ai/ha, preemergence) | Barnyardgrass plant response rating (barnyardgrass; [2])
75: Plant response rating, Guineagrass (guineagrass; 16 g ai/ha, preemergence) | Foxtail, Green plant response rating (green foxtail; 62 g ai/ha, Preemergence) | Plant response rating, Foxtail, Green (green foxtail; Preemergence, 31 g ai/ha) | Quackgrass plant response rating (quackgrass; 125 g ai/ha, preemergence)
90: Itchgrass plant response rating (itchgrass; 125 g ai/ha, preemergence) | Plant response rating, Barnyardgrass (barnyardgrass; [4])
